In the supplement of paper PMC10307832:

Experiments:
Test in all cases: relative viability (nuclei count vs DMSO), 5 days (fraction); higher = more cells survive
MLN4924 + Navitoclax = compound: NS(=O)(=O)OC[C@@H]1C[C@@H](n2ccc3c(N[C@H]4CCc5ccccc54)ncnc32)C[C@@H]1O [MLN4924] + CC1(C)CCC(c2ccc(Cl)cc2)=C(CN2CCN(c3ccc(C(=O)NS(=O)(=O)c4ccc(N[C@H](CCN5CCOCC5)CSc5ccccc5)c(S(=O)(=O)C(F)(F)F)c4)cc3)CC2)C1 [Navitoclax] (partner 0.5 µM)
Procedure, shortened: (§1)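 Nuclei were stained with Hoechst during a one-step fixation (final 0.05% Triton X-100, 1% formaldehyde, 1 ug/ml Hoechst) carried out 5 days after dosing, then counted on 4× images. The cells, lung cancer lines in 1536-well plates, had been dosed by pin tool the day after seeding with one drug alone or a fixed anchor-drug dose plus five library-drug doses (not always all listed) in √10 steps. Relative viability is the nuclei count in treated wells divided by that in vehicle wells, and each value is the median of duplicate plates.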

Carboplatin + Vorinostat = compound: C1CC(C1)(C(=O)O)C(=O)O.[NH2-].[NH2-].[Pt+2] [Carboplatin] + O=C(CCCCCCC(=O)Nc1ccccc1)NO [Vorinostat] (partner 1 µM)
Procedure, shortened: as §1

MLN4924 + Olaparib = compound: NS(=O)(=O)OC[C@@H]1C[C@@H](n2ccc3c(N[C@H]4CCc5ccccc54)ncnc32)C[C@@H]1O [MLN4924] + O=C(c1cc(Cc2n[nH]c(=O)c3ccccc23)ccc1F)N1CCN(C(=O)C2CC2)CC1 [Olaparib] (partner 8 µM)
Procedure, shortened: as §1

Carboplatin + Crizotinib = compound: C1CC(C1)(C(=O)O)C(=O)O.[NH2-].[NH2-].[Pt+2] [Carboplatin] + C[C@@H](Oc1cc(-c2cnn(C3CCNCC3)c2)cnc1N)c1c(Cl)ccc(F)c1Cl [Crizotinib] (partner 1 µM)
Procedure, shortened: as §1

Cell Line | relative viability (MLN4924 + Navitoclax; first compound 0.04 µM) | relative viability (MLN4924 + Navitoclax; first compound 0.1265 µM) | relative viability (MLN4924 + Navitoclax; first compound 0.4 µM) | relative viability (MLN4924 + Navitoclax; first compound 1.265 µM) | relative viability (MLN4924 + Navitoclax; first compound 4 µM) | relative viability (Carboplatin + Vorinostat; first compound 0.08 µM) | relative viability (Carboplatin + Vorinostat; first compound 0.253 µM) | relative viability (Carboplatin + Vorinostat; first compound 0.8 µM) | relative viability (Carboplatin + Vorinostat; first compound 2.53 µM) | relative viability (Carboplatin + Vorinostat; first compound 8 µM) | relative viability (MLN4924 + Olaparib; first compound 0.04 µM) | relative viability (MLN4924 + Olaparib; first compound 0.1265 µM) | relative viability (MLN4924 + Olaparib; first compound 0.4 µM) | relative viability (MLN4924 + Olaparib; first compound 1.265 µM) | relative viability (MLN4924 + Olaparib; first compound 4 µM) | relative viability (Carboplatin + Crizotinib; first compound 0.08 µM) | relative viability (Carboplatin + Crizotinib; first compound 0.253 µM) | relative viability (Carboplatin + Crizotinib; first compound 0.8 µM) | relative viability (Carboplatin + Crizotinib; first compound 2.53 µM) | relative viability (Carboplatin + Crizotinib; first compound 8 µM)
SK-MES-1 | 1.04 | 1.04 | 0.62 | 0.199 | 0.166 | 1.19 | 1.06 | 1.08 | 1.01 | 0.961 | 0.653 | 0.545 | 0.305 | 0.158 | 0.234 | 0.958 | 1.02 | 1.01 | 0.914 | 0.909
NCI-H1648 |  |  |  |  |  | 0.527 | 0.544 | 0.434 | 0.351 | 0.357 | 0.535 | 0.398 | 0.382 | 0.253 | 0.274 |  |  |  |  | 
PC-14 | 0.997 | 0.788 | 0.593 | 0.13 | 0.0891 | 0.862 | 0.783 | 0.582 | 0.234 | 0.142 | 0.188 | 0.129 | 0.0764 | 0.0624 | 0.0504 | 0.895 | 0.856 | 0.851 | 0.83 | 0.532
NCI-H1299 | 1.1 | 0.886 | 0.472 | 0.249 | 0.247 |  |  |  |  |  | 0.912 | 0.667 | 0.416 | 0.201 | 0.172 | 0.932 | 0.91 | 0.88 | 0.885 | 0.835
A549 | 1.02 | 0.991 | 0.197 | 0.04 | 0.0449 |  |  |  |  |  | 0.349 | 0.28 | 0.0869 | 0.045 | 0.0539 | 0.963 | 0.789 | 0.697 | 0.598 | 0.294
NCI-H358 |  |  |  |  |  | 0.735 | 0.668 | 0.681 | 0.664 | 0.53 | 0.537 | 0.494 | 0.312 | 0.0861 | 0.105 | 0.596 | 0.744 | 0.629 | 0.588 | 0.525
NCI-H2342 |  |  |  |  |  | 0.751 | 0.788 | 0.828 | 0.865 | 0.744 | 0.432 | 0.425 | 0.381 | 0.391 | 0.352 |  |  |  |  | 
NCI-H650 |  |  |  |  |  | 0.504 | 0.457 | 0.503 | 0.366 | 0.275 | 0.244 | 0.159 | 0.17 | 0.137 | 0.129 | 0.789 | 0.697 | 0.569 | 0.506 | 0.567
NCI-H522 |  |  |  |  |  | 0.882 | 0.904 | 0.944 | 0.968 | 0.669 | 0.568 | 0.495 | 0.485 | 0.288 | 0.322 |  |  |  |  | 
Calu-6 | 0.667 | 0.232 | 0.162 | 0.119 | 0.128 |  |  |  |  |  | 0.369 | 0.268 | 0.167 | 0.0976 | 0.0925 | 0.916 | 0.924 | 0.763 | 0.639 | 0.338
NCI-H661 |  |  |  |  |  | 0.82 | 0.785 | 0.733 | 0.777 | 0.622 | 0.614 | 0.575 | 0.39 | 0.31 | 0.372 | 1 | 1.05 | 0.98 |  | 0.843
EBC-1 | 0.348 | 0.262 | 0.172 | 0.112 | 0.139 |  |  |  |  |  | 0.558 | 0.259 | 0.134 | 0.0918 | 0.115 | 0.186 | 0.202 | 0.175 | 0.182 | 0.2
SW 900 |  |  |  |  |  | 0.476 | 0.522 | 0.501 | 0.528 | 0.519 |  | 0.594 | 0.429 | 0.233 | 0.228 |  |  |  |  | 
NCI-H1792 | 0.594 | 0.46 | 0.567 | 0.338 | 0.109 |  |  |  |  |  | 0.452 | 0.37 | 0.384 | 0.33 | 0.104 | 1.07 | 1.04 | 0.945 | 0.888 | 0.866
LCLC-103H |  |  |  |  |  | 0.804 | 0.785 | 0.72 | 0.768 | 0.692 | 0.717 | 0.615 | 0.665 | 0.292 | 0.293 | 1.06 | 1.01 | 1.01 | 1.19 | 1.01
NCI-H1703 | 0.133 | 0.14 | 0.188 | 0.133 | 0.124 |  |  |  |  |  | 0.332 | 0.174 | 0.156 | 0.145 | 0.135 | 0.835 | 0.574 | 0.65 | 0.971 | 0.636
NCI-H1395 | 0.981 | 1.19 | 0.651 | 0.407 | 0.375 | 1.03 | 0.638 | 0.847 | 0.644 | 0.502 | 0.415 | 0.426 | 0.367 | 0.339 | 0.364 |  |  |  |  | 
NCI-H1563 |  |  |  |  |  |  |  |  |  |  |  |  |  |  |  | 0.975 | 0.901 | 0.834 | 0.853 | 0.854
ABC-1 |  |  |  |  |  | 1.53 | 1.33 | 0.834 | 1.18 | 0.407 | 0.997 | 0.878 | 0.779 | 0.275 | 0.294 | 1.35 | 1.18 | 0.885 | 0.91 | 0.498
NCI-H1793 | 0.386 | 0.458 | 0.412 | 0.276 | 0.283 | 0.884 | 0.796 | 0.62 | 0.682 | 0.745 | 0.833 | 0.964 | 0.991 | 0.297 | 0.194 |  |  |  |  | 
